According to patent US20230381142A1, “ANTILEISHMANIAL COMPOUNDS, COMPOSITIONS AND USE THEREOF” (TRUSTEES OF BOSTON UNIVERSITY, priority 2022, published 2023):
Like-named read-outs stand apart in the source and are kept apart here.

How the values were obtained:
[1] = test system: L. donovani intracellular amastigotes infecting THP-1 macrophages; assay: GSK intramacrophage L. donovani assay (LD AMMAC, inMac; Assay Conditions C); assay type: cell-based; settings: Leishmania donovani
Experimental: Assay Conditions C: The intramacrophage Leishmania donovani activity assay was performed as described in Antimicrob Agents Chemother (2013) 57(7):2913-22.
(§1) The intramacrophage Leishmania donovani activity assay (LD AMMAC) at GlaxoSmithKline was performed as described.
(§2) Given the literature precedents described above and the apparent narrow tolerance for R^3 substitutions observed in the primary screen compounds, a thorough and methodical assessment was undertaken of tolerated groups at the three points of diversity (R^1/R^2/R^3) for the core. At this stage of the project, all analogues were assessed using a battery of assays performed in-house at GlaxoSmithKline. For antileishmanial activity, GSK's inMac assay was utilized. This assay provides two readouts of compound potency: average number of intracellular amastigotes per infected cell (AMMAC) EC50, percentage of infected cells per well (INFCELL) EC50, as well as a toxicity output derived from the number of host cells (MAC EC50). In addition, compounds were assessed for toxicity against HepG2 cells (HEPG2 EC50). Here, AMMAC EC50 values were focused on for relative potency assessments. […] It should be noted that for all compounds assessed in this project, the measured toxicity against THP-1 macrophages either equaled or exceeded that of HepG2 hepatocytes, therefore the MAC SI is used here as the more conservative estimate of therapeutic index.

[2] = GSK inMac assay, host cell toxicity readout (LD MAC); assay type: cell-based, human; settings: human
Experimental: as §1, §2

[3] = THP-1 cells, values marked c, read-out: L. donovani amastigotes EC50 (THP-1 cells)
[4] = footnote c, read-out: THP-1 Host Cell CC50
[5] = values marked c: THP-1 cells, read-out: L. donovani amastigotes EC50 (μM, THP-1 or B10R cells)

Compound | EC50 [1, 3] [µM] | EC50 [1, 5] [µM] | CC50 [2, 4] [µM] | CC50 ([2]; host THP-1 cells) [µM]
CCn1nc(CC(C)C)c2c1C(=O)N(c1ccc(OC)cc1)C2c1ccc(F)cc1 (centres unmarked) [BUCMD00809] | 4 | – | 39.8 | –
CCn1nc2c(c1CC(C)C)C(c1ccc(F)cc1)N(c1ccc(OC)cc1)C2=O (centres unmarked) [BUCMD00810] | 20 | – | > 50 | –
COc1ccc(N2C(=O)c3[nH]nc(-c4ccc(OCc5ccccc5)cc4)c3C2c2ccc(F)cc2)cc1 (centres unmarked) [BUCMD00811] | 10 | – | 15.8 | –
COc1ccc(N2C(=O)c3[nH]nc(CC4CCCCC4)c3C2c2ccc(F)cc2)cc1 (centres unmarked) [BUCMD00812] | 3.2 | – | 20 | –
COCn1nc(CC(C)C)c2c1C(=O)N(c1ccc(OC)cc1)C2c1ccc(F)cc1 (centres unmarked) [BUCMD00813] | 12.6 | – | 31.6 | –
COCn1nc2c(c1CC(C)C)C(c1ccc(F)cc1)N(c1ccc(OC)cc1)C2=O (centres unmarked) [BUCMD00814] | 12.6 | – | > 50 | –
CC(C)Cc1n[nH]c2c1C(c1ccc(F)cc1)N(c1ccc(-n3ccnc3)cc1)C2=O (centres unmarked) [BUCMD00815] | 2.5 | – | > 50 | –
CC(C)Cc1n[nH]c2c1C(c1ccc(F)cc1)N(C(CO)CO)C2=O (centres unmarked) [BUCMD00817] | > 50 | – | > 50 | –
CC(C)Cc1nn(-c2ccc(OC(F)(F)F)cc2)c2c1C(c1ccccc1)NC2=O (centres unmarked) [CMLD009657] | – | 12.6 | – | ≥ 50.1
COc1ccc(N2C(=O)c3[nH]nc(CCc4ccccc4)c3C2c2ccc(F)cc2)cc1 (centres unmarked) [CMLD010849] | 6.3 | – | 25.1 | –
COc1ccc(N2C(=O)c3[nH]nc(CC(C)C)c3C2C2CCN(Cc3ccccc3)CC2)cc1 (centres unmarked) [CMLD010882] | 15.9 | – | 20 | –
COc1ccc(N2C(=O)c3[nH]nc(CC(C)C)c3C2C2CCCCC2)cc1 (centres unmarked) [CMLD010892] | 7.9 | – | 25.1 | –
COc1cc(N2C(=O)c3[nH]nc(CC(C)C)c3C2c2ccc(F)cc2)cc(OC)c1OC (centres unmarked) [CMLD010896] | 4 | – | 3.2 | –
Cc1cc(F)ccc1C1c2c(CC(C)C)n[nH]c2C(=O)N1c1ccc(-n2ccnc2)cc1 (centres unmarked) [CMLD010926] | 1.3 | – | 25.1 | –
COc1ccc(N2C(=O)c3[nH]nc(CC(C)C)c3C2C2CCCC2)cc1 (centres unmarked) [CMLD010978] | 12.6 | – | 20 | –
COc1ccc(N2C(=O)c3[nH]nc(-c4ccc(CC(C)C)cc4)c3C2c2ccc(F)cc2)cc1 (centres unmarked) [CMLD010979] | 4 | – | 7.9 | –
COc1ccc(N2C(=O)c3[nH]nc(-c4ccc5c(c4)CCC5)c3C2c2ccc(F)cc2)cc1 (centres unmarked) [CMLD010980] | 5 | – | 7.9 | –
COc1ccc(N2C(=O)c3[nH]nc(CCC=C(C)C)c3C2c2ccc(F)cc2)cc1 (centres unmarked) [CMLD010981] | 6.3 | – | 20 | –
CCCn1nc(CC(C)C)c2c1C(=O)N(c1ccc(OC)cc1)C2c1ccc(F)cc1 (centres unmarked) [CMLD010982] | 5 | – | 25.1 | –
C=CCn1nc2c(c1CC(C)C)C(c1ccc(F)cc1)N(c1ccc(OC)cc1)C2=O (centres unmarked) [CMLD010984] | – | 6.3 | – | 31.6
C=CCn1nc(CC(C)C)c2c1C(=O)N(c1ccc(OC)cc1)C2c1ccc(F)cc1 (centres unmarked) [CMLD010985] | 2.5 | – | 31.6 | –
COc1ccc(N2C(=O)c3nn(C)c(CC(C)C)c3C2c2ccc(F)cc2)cc1 (centres unmarked) [CMLD010988] | – | 7.9 | – | 25.1
COc1ccc(N2C(=O)c3c(c(CC(C)C)nn3C)C2c2ccc(F)cc2)cc1 (centres unmarked) [CMLD010989] | 1.6 | – | 25.1 | –
CCCn1nc2c(c1CC(C)C)C(c1ccc(F)cc1)N(c1ccc(OC)cc1)C2=O (centres unmarked) [CMLD010990] | – | 7.9 | – | 25.1
CC(C)Cc1n[nH]c2c1[C@H](c1ccc(F)cc1)N(c1ccc3ncnn3c1)C2=O [CMLD010993] | 10 | – | 25.1 | –
CC(C)Cc1n[nH]c2c1C(c1ccccc1Cl)N(c1ccc(-n3ccnc3)cc1)C2=O (centres unmarked) [CMLD010998] | 6.3 | – | ≥ 50.1 | –
C=CCCc1n[nH]c2c1C(c1ccc(F)cc1)N(c1ccc(OC)cc1)C2=O (centres unmarked) [CMLD011024] | 1.6 | – | 3.2 | –
C=C(C)CCc1n[nH]c2c1C(c1ccc(F)cc1)N(c1ccc(OC)cc1)C2=O (centres unmarked) [CMLD011025] | 0.5 | – | 1.6 | –
COc1ccc(CN2C(=O)c3[nH]nc(CC(C)C)c3C2c2ccc(F)cc2)cc1 (centres unmarked) [CMLD011026] | 12.6 | – | 31.6 | –
CC(C)Cc1n[nH]c2c1C(c1ccc(F)cc1)N(C1CCOCC1)C2=O (centres unmarked) [CMLD011030] | 31.6 | – | > 50 | –

More lines, main results first:

EC50 [1, 3] [µM] | EC50 [1, 5] [µM] | Compound | CC50 [2, 4] [µM] | CC50 ([2]; host THP-1 cells) [µM]
10 | – | CC(C)Cc1n[nH]c2c1C(c1ccc(F)cc1)N(c1ccc(C(C)(C)C)cc1)C2=O (centres unmarked) [BUCMD00816] | > 50 | –
6.3 | – | COc1ccc(N2C(=O)c3[nH]nc(CC(C)C)c3C2c2cccc(C(F)(F)F)c2)cc1 (centres unmarked) [CMLD007432] | 15.9 | –
39.8 | – | CC(C)Cc1n[nH]c2c1C(c1ccc(F)cc1)N(Cc1ccc(C(F)(F)F)cn1)C2=O (centres unmarked) [CMLD010848] | > 50 | –
20 | – | COc1cccc(N2C(=O)c3[nH]nc(CC(C)C)c3C2c2ccsc2)c1 (centres unmarked) [CMLD010880] | 39.8 | –
7.9 | – | COc1cccc(N2C(=O)c3[nH]nc(CC(C)C)c3C2c2ccccc2Cl)c1 (centres unmarked) [CMLD010881] | 15.8 | –
31.6 | – | COc1cncc(N2C(=O)c3[nH]nc(CC(C)C)c3C2c2ccc(F)cc2)c1 (centres unmarked) [CMLD010883] | > 50 | –
3.2 | – | CC(C)Cc1n[nH]c2c1C(c1ccc(F)cc1)N(c1ccc(OC(F)(F)F)cc1)C2=O (centres unmarked) [CMLD010885] | 7.9 | –
10 | – | COc1ccc(N2C(=O)c3[nH]nc(CC(C)C)c3C2c2cncc(OC)c2)cc1 (centres unmarked) [CMLD010886] | 20 | –
> 50 | – | COc1ccc(N2C(=O)c3[nH]nc(CC(C)C)c3C2c2ccncn2)cc1 (centres unmarked) [CMLD010887] | > 50 | –
6.3 | – | COc1ccc(N2C(=O)c3[nH]nc(CC(C)C)c3C2c2ccc(Br)cc2)cc1 (centres unmarked) [CMLD010889] | 15.9 | –
5 | – | COc1ccc(N2C(=O)c3[nH]nc(CC(C)C)c3C2c2cccc(F)c2)cc1 (centres unmarked) [CMLD010890] | 12.6 | –
7.9 | – | COc1ccc(N2C(=O)c3[nH]nc(CC(C)C)c3C2c2cccc(Br)c2)cc1 (centres unmarked) [CMLD010891] | 25.1 | –
0.5 | – | COc1ccc(N2C(=O)c3[nH]nc(CC(C)C)c3C2c2ccccc2Br)cc1 (centres unmarked) [CMLD010894] | 25.1 | –
12.6 | – | COc1cccc(N2C(=O)c3[nH]nc(CC(C)C)c3C2c2ccc(F)cc2)c1 (centres unmarked) [CMLD010895] | 31.6 | –
1.3 | – | CC(C)Cc1n[nH]c2c1C(c1ccc(F)cc1)N(c1ccc(Br)cc1)C2=O (centres unmarked) [CMLD010897] | 15.9 | –
2 | – | COc1ccc(N2C(=O)c3[nH]nc(CC(C)C)c3C2c2cccc(C(F)(F)F)c2)cn1 (centres unmarked) [CMLD010898] | 20 | –

EC50 [1, 3] [µM] | EC50 [1, 5] [µM] | Compound | CC50 [2, 4] [µM] | CC50 ([2]; host THP-1 cells) [µM]
4 | – | CCc1ccc(N2C(=O)c3[nH]nc(CC(C)C)c3C2c2ccc(F)cc2)cc1 (centres unmarked) [CMLD010899] | 20 | –
1.6 | – | CCOc1ccc(N2C(=O)c3[nH]nc(CC(C)C)c3C2c2ccc(F)cc2)cc1 (centres unmarked) [CMLD010900] | 20 | –
20 | – | COc1ccc(N2C(=O)c3[nH]nc(CC(C)C)c3C2C2CCCCC2)cn1 (centres unmarked) [CMLD010903] | 31.6 | –
– | ≥ 50.1 | CC(C)Cc1n[nH]c2c1C(c1cccc(C(F)(F)F)c1)N(c1ccc(-n3ccnc3)cc1)C2=O (centres unmarked) [CMLD010924] | – | 39.8
7.9 | – | CC(C)Cc1n[nH]c2c1C(c1cccc(C(F)(F)F)c1)N(c1ccc(N(C)C)cc1)C2=O (centres unmarked) [CMLD010925] | 20 | –
0.5 | – | COc1ccc(N2C(=O)c3[nH]nc(CC(C)C)c3[C@@H]2c2ccc(F)cc2C)cc1 [CMLD010949] | 39.8 | –
6.3 | – | COc1ccc(N2C(=O)c3[nH]nc(CC(C)C)c3[C@H]2c2ccc(F)cc2C)cc1 [CMLD010950] | 31.6 | –
1 | – | COc1ccc(N2C(=O)c3[nH]nc(CC(C)C)c3[C@@H]2c2ccccc2Br)cn1 [CMLD010976] | 20 | –
15.9 | – | COc1ccc(N2C(=O)c3[nH]nc(CC(C)C)c3C2c2cncs2)cc1 (centres unmarked) [CMLD010991] | > 50 | –
20 | – | COc1ccc(N2C(=O)c3[nH]nc(CC(C)C)c3C2c2ccc(F)cc2)c(OC)c1 (centres unmarked) [CMLD010992] | 31.6 | –
0.5 | – | COc1ccc(N2C(=O)c3[nH]nc(CC(C)C)c3C2c2ccccc2OC)cc1 (centres unmarked) [CMLD010994] | 25.1 | –
6.3 | – | COc1ccc(N2C(=O)c3[nH]nc(CC(C)C)c3C2c2cc(C(F)(F)F)ccc2C(F)(F)F)cc1 (centres unmarked) [CMLD010996] | 25.1 | –
> 50 | – | COc1ccc(N2C(=O)c3[nH]nc(CC(C)C)c3C2c2ccc(OC)nc2)cc1 (centres unmarked) [CMLD011027] | > 50 | –
> 50 | – | COc1ccc(N2C(=O)c3[nH]nc(CC(C)C)c3C2c2cc(F)nc(F)c2)cc1 (centres unmarked) [CMLD011028] | > 50 | –
5 | – | CC(C)Cc1n[nH]c2c1C(c1ccc(F)cc1)N(c1ccc(O)cc1)C2=O (centres unmarked) [CMLD011029] | 39.8 | –
